The C3SDB collision cross section collection
One block for each compound: values may come before it.

Columns and labels:
[1] = instrument: DT, single field, calibrated with Agilent tune mix (Agilent)
[2] = [M+H]+; instrument: TW; Major Mix IMS/Tof Calibration Kit (Waters)
[3] = instrument: DT, stepped-field
[4] = instrument: DT, stepped-field; remark: listed apart in the source

Structure (SMILES): CCCCCC/C=C\CCCCCCCCC(=O)OC[C@@H](O)COP(=O)([O-])OCC[N+](C)(C)C [LPC(17:1)]
collision cross section (N2) ([1]; [M+H]+): 228.4 Å²

Structure (SMILES): COC(=O)C1=C(C)NC(C)=C(C(=O)OC(C)(C)CN(C)CCC(c2ccccc2)c2ccccc2)C1c1cccc([N+](=O)[O-])c1 (stereo not given) [Lercanidipine]
collision cross section (N2) [2]: 249.8 Å²

Structure (SMILES): COc1cc(CCNCc2ccccc2OC)c(OC)cc1Cl [25C-NBOMe]
collision cross section (N2) [2]: 177.6 Å²

Structure (SMILES): COc1ccccc1OCCNCC(O)COc1cccc2[nH]c3ccccc3c12 (stereo not given) [Carvedilol]
collision cross section (N2) [2]: 190 Å²

Structure (SMILES): CNCC/C=C1/c2ccccc2Sc2ccc(Cl)cc21 [Chlorprothixene-M N-desmethyl]
collision cross section (N2) [2]: 165.9 Å²

Structure (SMILES): CCN(CC)[C@@H](C)[C@H](O)c1ccccc1 [N-diethylnorephedrine]
collision cross section (N2) [2]: 144.6 Å²

Structure (SMILES): CCOC(=O)c1ccc(N)cc1 [Benzocaine]
collision cross section (N2) [2]: 148.2 Å²

Structure (SMILES): Cc1cc(C(=O)NNCc2ccccc2)no1 [Isocarboxazid]
collision cross section (N2) [2]: 152.1 Å²

Structure (SMILES): c1ccc2c(CC3=NCCN3)cccc2c1 [Naphazoline]
collision cross section (N2) [2]: 149.6 Å²

Structure (SMILES): CCCCCCCCCCCCCCCCCCCC(=O)OC[C@@H](O)COP(=O)([O-])OCC[N+](C)(C)C [LPC(20:0)]
collision cross section (N2) ([1]; [M+H]+): 243.9 Å²
collision cross section (N2) ([3]; [M+H]+): 248.6 Å²
collision cross section (N2) ([3]; [M+Na]+): 251.13 Å²

Structure (SMILES): OCCN(CCO)c1nc(N2CCCCC2)c2nc(N(CCO)CCO)nc(N3CCCCC3)c2n1 [Dipyridamole]
collision cross section (N2) [2]: 227.5 Å²

Structure (SMILES): CCN(CC)CCN1C(=O)CN=C(c2ccccc2F)c2cc(Cl)ccc21 [Flurazepam]
collision cross section (N2) [2]: 185.3 Å²

Structure (SMILES): COc1ccc2c3c1O[C@H]1[C@@H](O)C=C[C@H]4[C@@H](C2)NCC[C@@]341 [Norcodeine]
collision cross section (N2) [2]: 166.1 Å²

Structure (SMILES): CC(C)(C)NCC(O)COc1cccc2c1C[C@H](O)[C@H](O)C2 (stereo not given in full) [Nadolol]
collision cross section (N2) [2]: 172 Å²

Structure (SMILES): CCCCCCCCCCCCC=CC[C@@H](O)[C@H](CO)NC(=O)CCCCCCCCCCCCCCCC [Cer(35:1)]
collision cross section (N2) ([1]; [M+H]+): 256.3 Å²

Structure (SMILES): CCCCCCCCCCCCC=CC[C@@H](O)[C@H](CO)NC(=O)CCCCCCCCCCCCCCCCCCC [Cer(38:1)]
collision cross section (N2) ([1]; [M+HCOO]-): 263.4 Å²
collision cross section (N2) ([1]; [M+H]+): 267.3 Å²
collision cross section (N2) ([1]; [M+Na]+): 273.1 Å²

Structure (SMILES): CCCCCCCCCCCCCCCCC(=O)N[C@@H](CO)[C@H](O)CCCCCCCCCCCCCCC [Cer(35:0)]
collision cross section (N2) ([1]; [M+H]+): 258.6 Å²

Structure (SMILES): CCCCCCCCCCCCCCCCCC(=O)OC[C@@H](O)COP(=O)(O)OC[C@H](N)C(=O)O [LPS(18:0)]
collision cross section (N2) ([1]; [M+H]+): 228.3 Å²
collision cross section (N2) ([1]; [M+Na]+): 232.1 Å²

Structure (SMILES): CCCCCCCCCCCCC=CC[C@@H](O)[C@H](CO)NC(=O)CCCCCCCCCCCCCCCCCCCC [Cer(39:1)]
collision cross section (N2) ([1]; [M+H]+): 269 Å²

Structure (SMILES): CCCCCCCCCCCCC=CC[C@@H](O)[C@H](CO)NC(=O)CCCCCCCCCCCCCCCCCCCCC [Cer(40:1)]
collision cross section (N2) ([1]; [M+HCOO]-): 269.4 Å²
collision cross section (N2) ([1]; [M+H]+): 272.3 Å²

Structure (SMILES): CCCCCCCCCCCCC=CC[C@@H](O)[C@H](CO[C@@H]1O[C@H](CO)[C@@H](O)C(O)C1O)NC(=O)CCCCCCCCCCCCCCCCCCCCCCCCC (stereo not given in full) [GlcCer(44:1)]
collision cross section (N2) ([1]; [M+H]+): 307.2 Å²
collision cross section (N2) ([1]; [M+Na]+): 308.7 Å²

Structure (SMILES): CCCCCCCCCCCCC=CC[C@@H](O)[C@H](CO)NC(=O)CCCCCCCCCCCCCCCCCCCCCCC [Cer(42:1)]
collision cross section (N2) ([1]; [M+H]+): 279.3 Å²
collision cross section (N2) ([1]; [M-H]-): 267.7 Å²

Structure (SMILES): CCCCCCCCCCCCC=CC[C@@H](O)[C@H](CO)NC(=O)CCCCCCCCCCCCCCCCCCCCCC [Cer(41:1)]
collision cross section (N2) ([1]; [M+H]+): 275.6 Å²
collision cross section (N2) ([1]; [M+Na]+): 281.6 Å²

Structure (SMILES): CCCCCCCCCCCCC=CC[C@@H](O)[C@H](CO)NC(=O)CC=CCCCCCCCCCCCCCC [Cer(36:2)]
collision cross section (N2) ([1]; [M+H]+): 255.4 Å²

Structure (SMILES): CCCCC/C=C\C/C=C\C/C=C\C/C=C\CCCC(=O)O[C@H](COC(=O)CCCCCCCCCCCCCCC)COP(=O)(O)O [PA(36:04)]
collision cross section (N2) ([4]; [M+2Na-H]+): 270.03 Å²
collision cross section (N2) ([4]; [M+Na]+): 268.39 Å²

Structure (SMILES): CCCCCCCCCCCCC=CC[C@@H](O)[C@H](CO)NC(=O)CC=CCCCCCCCCCCCCCCCCCCCC [Cer(42:2)]
collision cross section (N2) ([1]; [M+HCOO]-): 274.4 Å²
collision cross section (N2) ([1]; [M+Na]+): 278.8 Å²
collision cross section (N2) ([1]; [M-H]-): 266.1 Å²

Structure (SMILES): CCCCCCCCCC/C=C\CCCCCCCCCC(=O)O[C@H](COC(=O)CCCCCCCCCCCC)COP(=O)(O)O [PA(35:01)]
collision cross section (N2) ([4]; [M+2Na-H]+): 271.84 Å²

Further lines, results first:

collision cross section (N2) [2]: 175.4 Å²
Structure (SMILES): CN1CCC(=C2c3ccccc3CCc3sccc32)CC1 [Pizotifen]

collision cross section (N2) [2]: 162.7 Å²
Structure (SMILES): CC(C)NCC(O)COc1cccc2ccccc12 (stereo not given) [Propranolol]

collision cross section (N2) [2]: 215.9 Å²
Structure (SMILES): O=C1NCCN1CCN1CCC(c2cn(-c3ccc(F)cc3)c3ccc(Cl)cc23)CC1 [Sertindol]

collision cross section (N2) ([1]; [M+NH4]+): 322.1 Å²
Structure (SMILES): CCCCC/C=C\C/C=C\C/C=C\C/C=C\CCCCCC(=O)OC[C@@H](COC(=O)CCCCCCCCCCCC)OC(=O)CCCCCCC/C=C\CCCCCCCCC [TG(54:5)]

collision cross section (N2) ([1]; [M+NH4]+): 343.6 Å²
Structure (SMILES): CCCCC/C=C\C/C=C\C/C=C\C/C=C\CCCCCC(=O)OC[C@@H](COC(=O)CCCCCCC/C=C\CCCCCCCC)OC(=O)CCCCCCCCCCC/C=C\C/C=C\CCCCC [TG(62:7)]

collision cross section (N2) [2]: 209.9 Å²
Structure (SMILES): Cc1nc2n(c(=O)c1CCN1CCC(c3noc4cc(F)ccc34)CC1)CCCC2O (stereo not given) [Risperidone-M 9-hydroxy]

collision cross section (N2) ([1]; [M+NH4]+): 333.6 Å²
Structure (SMILES): CCCCCCCCCC/C=C\CCCCCCCCCC(=O)OC[C@@H](COC(=O)CCCCCCCCCCC)OC(=O)CCCCCCCCCCCCCCCCCCCCC [TG(56:1)]

collision cross section (N2) ([1]; [M+H]+): 283.3 Å²
Structure (SMILES): CCCCCC/C=C\CCCCCCCC/C=C\OC[C@H](COP(=O)([O-])OCC[N+](C)(C)C)OC(=O)CCCCCCC/C=C\CCCCCC [PC(p34:2)]

collision cross section (N2) ([1]; [M-H]-): 279.2 Å²
Structure (SMILES): CCCCC/C=C\C/C=C\CCCCCCCC(=O)O[C@H](COC(=O)CCCCCCCCC/C=C\CCCCCCCC)COP(=O)(O)OC[C@@H](O)CO [PG(38:3)]

collision cross section (N2) ([1]; [M+H]+): 278.5 Å²
Structure (SMILES): CCCCCCCCCCCCCCC[C@@H](O)[C@H](COP(=O)([O-])OCC[N+](C)(C)C)NC(=O)CCCCCCCCCCCCC [SM(32:0)]

collision cross section (N2) ([1]; [M-H]-): 296.5 Å²
Structure (SMILES): CCCCC/C=C\C/C=C\C/C=C\CCCCCCC(=O)O[C@H](COC(=O)CCCCCCCCCCCCCCCCCC)COP(=O)(O)O[C@H]1C(O)C(O)C(O)[C@@H](O)C1O (stereo not given in full) [PI(39:3)]

collision cross section (N2) ([1]; [M-H]-): 295 Å²
Structure (SMILES): CCCCC/C=C\C/C=C\C/C=C\C/C=C\CCCCCC(=O)O[C@H](COC(=O)CCCCCCCCCCCCCCCC)COP(=O)(O)O[C@H]1C(O)C(O)C(O)[C@@H](O)C1O (stereo not given in full) [PI(39:4)]

collision cross section (N2) ([1]; [M+NH4]+): 325 Å²
Structure (SMILES): CCCCC/C=C\CCCCCCCC(=O)OC[C@H](COC(=O)CCCCCCCCCCCCCCCCCC)OC(=O)CCCCCCCCCCCCCCCCCC [TG(53:1)]

collision cross section (N2) ([1]; [M+NH4]+): 332.7 Å²
Structure (SMILES): CC/C=C\C/C=C\C/C=C\C/C=C\C/C=C\CCCCCC(=O)OC[C@@H](COC(=O)CCCC/C=C\C/C=C\C/C=C\C/C=C\CC)OC(=O)CCCCC/C=C\C/C=C\C/C=C\C/C=C\C/C=C\CC [TG(62:14)]

collision cross section (N2) ([1]; [M+NH4]+): 346.8 Å²
Structure (SMILES): CCCCCCCC/C=C\CCCCCCCC(=O)OC[C@H](COC(=O)CCCCCCCCC/C=C\CCCCCCCCCC)OC(=O)CCCCCCCCC/C=C\CCCCCCCCCC [TG(62:3)]

collision cross section (N2) ([4]; [M+K]+): 277.37 Å²
collision cross section (N2) ([4]; [M+Na]+): 275.61 Å²
Structure (SMILES): CCCCCCC/C=C\CCCCCCCC(=O)O[C@H](COC(=O)CCCCCCC/C=C\CCCCCCCC)COP(=O)(O)OCCN [PE(35:02)]

collision cross section (N2) ([4]; [M+Cl]-): 299.51 Å²
collision cross section (N2) ([4]; [M+Na]+): 293.06 Å²
Structure (SMILES): CCCCC/C=C\C/C=C\CCCC/C=C\CCCC(=O)O[C@H](COC(=O)CCCCCCCCCCCCCCCCC)COP(=O)([O-])OCC[N+](C)(C)C [PC(38:03)]

collision cross section (N2) ([4]; [M+2Na-H]+): 282.12 Å²
collision cross section (N2) ([4]; [M+Na]+): 280.15 Å²
Structure (SMILES): CCCCC/C=C\C/C=C\CCCCCCCC(=O)OC[C@H](COP(=O)(O)OCCN)OC(=O)CCCCCCC/C=C\CCCCCCCCC [PE(37:03)]

collision cross section (N2) ([4]; [M+Na]+): 280.61 Å²
Structure (SMILES): CCCCCCCCCCCCC=CC[C@@H](O)[C@H](COP(=O)([O-])OCC[N+](C)(C)C)NC(=O)CCCCCCCCCCCCCCCC [SM(35:01)]

collision cross section (N2) ([4]; [M+2Na-H]+): 294.68 Å²
Structure (SMILES): CCCCCCCCCCCCCCCCCCCC(=O)N[C@@H](COP(=O)([O-])OCC[N+](C)(C)C)[C@H](O)CCCCCCCCCCCCCCC [SM(38:00)]

collision cross section (N2) ([1]; [M+NH4]+): 334.1 Å²
Structure (SMILES): CC/C=C\C/C=C\C/C=C\C/C=C\C/C=C\CCCCCC(=O)OC[C@@H](COC(=O)CCCCCCC/C=C\C/C=C\CCCCC)OC(=O)CCCCCC/C=C\C/C=C\C/C=C\CCCCC [TG(60:10)]

collision cross section (N2) ([4]; [M+Na]+): 304.66 Å²
Structure (SMILES): CCCCCCCCCCCCC=CC[C@@H](O)[C@H](COP(=O)([O-])OCC[N+](C)(C)C)NC(=O)CC=CCC=CCCCCCCCCCCCCCCCCCCC [SM(44:03)]

collision cross section (N2) ([4]; [M+2Na-H]+): 289.29 Å²
Structure (SMILES): CCCCC/C=C\C/C=C\CCCCCCCCCCCC(=O)O[C@H](COC(=O)CCCCCCCCCCCCCC)COP(=O)(O)OC[C@H](N)C(=O)O [PS(37:02)]

collision cross section (N2) ([1]; [M+H]+): 305.1 Å²
collision cross section (N2) ([1]; [M+NH4]+): 306 Å²
collision cross section (N2) ([1]; [M+Na]+): 303.2 Å²
collision cross section (N2) ([1]; [M-H]-): 295.2 Å²
Structure (SMILES): CCCCCC/C=C\CCCCCCCC(=O)OC[C@H](COP(=O)(O)O[C@H]1C(O)C(O)C(O)[C@@H](O)C1O)OC(=O)CCCCCCCCC/C=C\CCCCCCCCCC (stereo not given in full) [PI(38:2)]

collision cross section (N2) ([4]; [M+2Na-H]+): 291.84 Å²
Structure (SMILES): CCCCC/C=C\C/C=C\CCCCCCCC(=O)OC[C@H](COP(=O)(O)OCCN)OC(=O)CCCCCCCCCCCCCCCCCCCC [PE(39:02)]
